According to US20240108006A1, “PESTICIDALLY ACTIVE HETEROAROMATIC COMPOUNDS” (SYNGENTA CROP PROTECTION AG, priority 2021, published 2024):

Tests used:
Type in all cases: in vivo
Chilo suppressalis = experiment: Example B1: Chilo suppressalis (striped rice stemborer), artificial diet, L2 larvae; conditions: 144 h, application rate of 200 ppm, 6 days after infestation, read-out: control in at least one of the three categories (mortality, anti-feedant effect, or growth inhibition)
In short: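 Artificial diet was treated with aqueous test solutions made from 10,000 ppm DMSO stocks, dried, then infested with L2 larvae (6-8 per well). Mortality, anti-feeding effect and growth inhibition were scored against untreated samples 6 days after infestation, and control was counted when any category exceeded untreated.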

Plutella xylostella = experiment: Example B8: Plutella xylostella (diamond back moth), artificial diet 24-well, eggs; conditions: 192 h, application rate of 200 ppm, 8 days after infestation, read-out: effect in at least one of the two categories (mortality or growth inhibition)
In short: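 Artificial diet in 24-well plates treated with aqueous dilutions of DMSO stock (10,000 ppm stock) and dried, then infested with Plutella eggs. Mortality and growth inhibition scored versus untreated samples 8 days after infestation.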

Spodoptera littoralis = experiment: Example B9: Spodoptera littoralis (Egyptian cotton leaf worm), cotton leaf discs, L1 larvae; conditions: foliar, 72 h, application rate of 200 ppm, 3 days after infestation, read-out: control in at least one of the three categories (mortality, anti-feedant effect, or growth inhibition)
Procedure: Example B9: Spodoptera littoralis (Egyptian Cotton Leaf Worm)
Cotton leaf discs were placed onto agar in 24-well microtiter plates and sprayed with aqueous test solutions prepared from 10,000 ppm DMSO stock solutions. After drying the leaf discs were infested with five L1 larvae. The samples were assessed for mortality, anti-feeding effect, and growth inhibition in comparison to untreated samples 3 days after infestation. Control of Spodoptera littoralis by a test sample is given when at least one of the categories mortality, anti-feedant effect, and growth inhibition is higher than the untreated sample.

C[C@H](NC(=O)Nc1cc(Cl)c(Cl)cc1F)c1ncnn1-c1ncccn1 [Example P118, 1-(4,5-dichloro-2-fluoro-phenyl)-3-[(1S)-1-(2-pyrimidin-2-yl-1,2,4-triazol-3-yl)ethyl]urea]
≥ 80%: percent control (mortality, anti-feedant effect or growth inhibition) at 200 ppm (Chilo suppressalis) | percent effect (mortality or growth inhibition) at 200 ppm (Plutella xylostella) | percent control (mortality, anti-feedant effect or growth inhibition) at 200 ppm (Spodoptera littoralis)

C[C@H](NC(=S)Nc1ccc(C(F)(F)F)cc1Cl)c1ncnn1-c1ncccn1 [Example P129, 1-[2-chloro-4-(trifluoromethyl)phenyl]-3-[(1S)-1-(2-pyrimidin-2-yl-1,2,4-triazol-3-yl)ethyl]thiourea]
≥ 80%: percent control (mortality, anti-feedant effect or growth inhibition) at 200 ppm (Chilo suppressalis) | percent effect (mortality or growth inhibition) at 200 ppm (Plutella xylostella) | percent control (mortality, anti-feedant effect or growth inhibition) at 200 ppm (Spodoptera littoralis)

C[C@H](NC(=O)Nc1cc(C(F)(F)F)c(Cl)cc1Cl)c1ncnn1-c1ccc(C#N)cn1 [Example P173, 1-[(1S)-1-[2-(5-cyano-2-pyridyl)-1,2,4-triazol-3-yl]ethyl]-3-[2,4-dichloro-5-(trifluoromethyl)phenyl]urea]
≥ 80%: percent control (mortality, anti-feedant effect or growth inhibition) at 200 ppm (Chilo suppressalis) | percent effect (mortality or growth inhibition) at 200 ppm (Plutella xylostella) | percent control (mortality, anti-feedant effect or growth inhibition) at 200 ppm (Spodoptera littoralis)

C[C@H](NC(=O)Nc1cc(O)c(Cl)cc1Cl)c1ncnn1-c1ncccn1 [Example P237, 1-(2,4-dichloro-5-hydroxy-phenyl)-3-[(1S)-1-(2-pyrimidin-2-yl-1,2,4-triazol-3-yl)ethyl]urea]
≥ 80%: percent control (mortality, anti-feedant effect or growth inhibition) at 200 ppm (Chilo suppressalis) | percent effect (mortality or growth inhibition) at 200 ppm (Plutella xylostella) | percent control (mortality, anti-feedant effect or growth inhibition) at 200 ppm (Spodoptera littoralis)

CC(NC(=O)Nc1cc(C(F)(F)F)c(Cl)cc1Br)c1nccnc1-c1ncccn1 (stereo not drawn) [Example P240, 1-[2-bromo-4-chloro-5-(trifluoromethyl)phenyl]-3-[1-(3-pyrimidin-2-ylpyrazin-2-yl)ethyl]urea]
≥ 80%: percent control (mortality, anti-feedant effect or growth inhibition) at 200 ppm (Chilo suppressalis) | percent effect (mortality or growth inhibition) at 200 ppm (Plutella xylostella) | percent control (mortality, anti-feedant effect or growth inhibition) at 200 ppm (Spodoptera littoralis)

CC(NC(=O)Nc1ccc(C(F)(F)F)cc1I)c1nccnc1-c1ncccn1 (stereo not drawn) [Example P243, 1-[2-iodo-4-(trifluoromethyl)phenyl]-3-[1-(3-pyrimidin-2-ylpyrazin-2-yl)ethyl]urea]
≥ 80%: percent control (mortality, anti-feedant effect or growth inhibition) at 200 ppm (Chilo suppressalis) | percent effect (mortality or growth inhibition) at 200 ppm (Plutella xylostella) | percent control (mortality, anti-feedant effect or growth inhibition) at 200 ppm (Spodoptera littoralis)

C[C@H](NC(=O)Nc1ccc(Br)cc1OC(F)F)c1nccnc1-c1ccc(C#N)cn1 [Example P247, 1-[4-bromo-2-(difluoromethoxy)phenyl]-3-[(1S)-1-[3-(5-cyano-2-pyridyl)pyrazin-2-yl]ethyl]urea]
≥ 80%: percent control (mortality, anti-feedant effect or growth inhibition) at 200 ppm (Chilo suppressalis) | percent effect (mortality or growth inhibition) at 200 ppm (Plutella xylostella) | percent control (mortality, anti-feedant effect or growth inhibition) at 200 ppm (Spodoptera littoralis)

C[C@H](NC(=O)Nc1cnc(Br)cc1Br)c1nccnc1-c1ccc(C#N)cn1 [Example P248, 1-[(1S)-1-[3-(5-cyano-2-pyridyl)pyrazin-2-yl]ethyl]-3-(4,6-dibromo-3-pyridyl)urea]
≥ 80%: percent control (mortality, anti-feedant effect or growth inhibition) at 200 ppm (Chilo suppressalis) | percent effect (mortality or growth inhibition) at 200 ppm (Plutella xylostella) | percent control (mortality, anti-feedant effect or growth inhibition) at 200 ppm (Spodoptera littoralis)

C[C@H](NC(=O)Nc1ccc(C(F)(F)F)cc1I)c1nccnc1-c1ccc(C#N)cn1 [Example P249, 1-[(1S)-1-[3-(5-cyano-2-pyridyl)pyrazin-2-yl]ethyl]-3-[2-iodo-4-(trifluoromethyl)phenyl]urea]
≥ 80%: percent control (mortality, anti-feedant effect or growth inhibition) at 200 ppm (Chilo suppressalis) | percent effect (mortality or growth inhibition) at 200 ppm (Plutella xylostella) | percent control (mortality, anti-feedant effect or growth inhibition) at 200 ppm (Spodoptera littoralis)

C[C@H](NC(=O)Nc1cc(OC(F)(F)C(F)F)c(Cl)cc1Cl)c1ncnn1-c1ccc(C#N)cn1 [Example P251, 1-[(1S)-1-[2-(5-cyano-2-pyridyl)-1,2,4-triazol-3-yl]ethyl]-3-[2,4-dichloro-5-(1,1,2,2-tetrafluoroethoxy)phenyl]urea]
≥ 80%: percent control (mortality, anti-feedant effect or growth inhibition) at 200 ppm (Chilo suppressalis) | percent effect (mortality or growth inhibition) at 200 ppm (Plutella xylostella) | percent control (mortality, anti-feedant effect or growth inhibition) at 200 ppm (Spodoptera littoralis)

C[C@H](NC(=O)Nc1cc(C(F)(F)F)c(Cl)cc1Br)c1ncnn1-c1ccc(C#N)cn1 [Example P253, 1-[2-bromo-4-chloro-5-(trifluoromethyl)phenyl]-3-[(1S)-1-[2-(5-cyano-2-pyridyl)-1,2,4-triazol-3-yl]ethyl]urea]
≥ 80%: percent control (mortality, anti-feedant effect or growth inhibition) at 200 ppm (Chilo suppressalis) | percent effect (mortality or growth inhibition) at 200 ppm (Plutella xylostella) | percent control (mortality, anti-feedant effect or growth inhibition) at 200 ppm (Spodoptera littoralis)

C[C@H](NC(=O)Nc1ccc(C(F)(F)F)cc1I)c1ncnn1-c1ccc(C#N)cn1 [Example P256, 1-[(1S)-1-[2-(5-cyano-2-pyridyl)-1,2,4-triazol-3-yl]ethyl]-3-[2-iodo-4-(trifluoromethyl)phenyl]urea]
≥ 80%: percent control (mortality, anti-feedant effect or growth inhibition) at 200 ppm (Chilo suppressalis) | percent effect (mortality or growth inhibition) at 200 ppm (Plutella xylostella) | percent control (mortality, anti-feedant effect or growth inhibition) at 200 ppm (Spodoptera littoralis)

CC(NC(=O)Nc1ccc(C(F)(F)F)cc1I)c1nccnc1-n1nccn1 (stereo not drawn) [Example P263, 1-[2-iodo-4-(trifluoromethyl)phenyl]-3-[1-[3-(triazol-2-yl)pyrazin-2-yl]ethyl]urea]
≥ 80%: percent control (mortality, anti-feedant effect or growth inhibition) at 200 ppm (Chilo suppressalis) | percent effect (mortality or growth inhibition) at 200 ppm (Plutella xylostella) | percent control (mortality, anti-feedant effect or growth inhibition) at 200 ppm (Spodoptera littoralis)

CC(NC(=O)Nc1cnc(C(F)(F)F)cc1Cl)c1nccnc1-n1nccn1 (stereo not drawn) [Example P264, 1-[4-chloro-6-(trifluoromethyl)-3-pyridyl]-3-[1-[3-(triazol-2-yl)pyrazin-2-yl]ethyl]urea]
≥ 80%: percent control (mortality, anti-feedant effect or growth inhibition) at 200 ppm (Chilo suppressalis) | percent effect (mortality or growth inhibition) at 200 ppm (Plutella xylostella) | percent control (mortality, anti-feedant effect or growth inhibition) at 200 ppm (Spodoptera littoralis)

COc1cc(NC(=O)N[C@@H](C)c2ncnn2-c2ncccn2)c(Cl)cc1Cl [Example P265, 1-(2,4-dichloro-5-methoxy-phenyl)-3-[(1S)-1-(2-pyrimidin-2-yl-1,2,4-triazol-3-yl)ethyl]urea]
≥ 80%: percent control (mortality, anti-feedant effect or growth inhibition) at 200 ppm (Chilo suppressalis) | percent effect (mortality or growth inhibition) at 200 ppm (Plutella xylostella) | percent control (mortality, anti-feedant effect or growth inhibition) at 200 ppm (Spodoptera littoralis)

C[C@H](NC(=O)Nc1cnc(Cl)cc1I)c1ncnn1-c1ncccn1 [Example P271, 1-(6-chloro-4-iodo-3-pyridyl)-3-[(1S)-1-(2-pyrimidin-2-yl-1,2,4-triazol-3-yl)ethyl]urea]
≥ 80%: percent control (mortality, anti-feedant effect or growth inhibition) at 200 ppm (Chilo suppressalis) | percent effect (mortality or growth inhibition) at 200 ppm (Plutella xylostella) | percent control (mortality, anti-feedant effect or growth inhibition) at 200 ppm (Spodoptera littoralis)

C[C@H](NC(=O)Nc1cc(Br)c(Cl)cc1F)c1ncnn1-c1ncccn1 [Example P300, 1-(5-bromo-4-chloro-2-fluoro-phenyl)-3-[(1S)-1-(2-pyrimidin-2-yl-1,2,4-triazol-3-yl)ethyl]urea]
≥ 80%: percent control (mortality, anti-feedant effect or growth inhibition) at 200 ppm (Chilo suppressalis) | percent effect (mortality or growth inhibition) at 200 ppm (Plutella xylostella) | percent control (mortality, anti-feedant effect or growth inhibition) at 200 ppm (Spodoptera littoralis)

C[C@H](NC(=O)Nc1cc(F)c(Br)cc1Cl)c1ncnn1-c1ncccn1 [Example P314, 1-(4-bromo-2-chloro-5-fluoro-phenyl)-3-[(1S)-1-(2-pyrimidin-2-yl-1,2,4-triazol-3-yl)ethyl]urea]
≥ 80%: percent control (mortality, anti-feedant effect or growth inhibition) at 200 ppm (Chilo suppressalis) | percent effect (mortality or growth inhibition) at 200 ppm (Plutella xylostella) | percent control (mortality, anti-feedant effect or growth inhibition) at 200 ppm (Spodoptera littoralis)

COc1cc(NC(=O)N[C@@H](C)c2ncnn2-c2ncccn2)c(Cl)cc1Br [Example P351, 1-(4-bromo-2-chloro-5-methoxy-phenyl)-3-[(1S)-1-(2-pyrimidin-2-yl-1,2,4-triazol-3-yl)ethyl]urea]
≥ 80%: percent control (mortality, anti-feedant effect or growth inhibition) at 200 ppm (Chilo suppressalis) | percent effect (mortality or growth inhibition) at 200 ppm (Plutella xylostella) | percent control (mortality, anti-feedant effect or growth inhibition) at 200 ppm (Spodoptera littoralis)

Cc1cc(Br)c(F)cc1NC(=O)N[C@@H](C)c1ncnn1-c1ncccn1 [Example P367, 1-(4-bromo-5-fluoro-2-methyl-phenyl)-3-[(1S)-1-(2-pyrimidin-2-yl-1,2,4-triazol-3-yl)ethyl]urea]
≥ 80%: percent control (mortality, anti-feedant effect or growth inhibition) at 200 ppm (Chilo suppressalis) | percent effect (mortality or growth inhibition) at 200 ppm (Plutella xylostella) | percent control (mortality, anti-feedant effect or growth inhibition) at 200 ppm (Spodoptera littoralis)

C[C@H](NC(=O)Nc1cc(Br)c(F)cc1Cl)c1ncnn1-c1ncccn1 [Example P388, 1-(5-bromo-2-chloro-4-fluoro-phenyl)-3-[(1S)-1-(2-pyrimidin-2-yl-1,2,4-triazol-3-yl)ethyl]urea]
≥ 80%: percent control (mortality, anti-feedant effect or growth inhibition) at 200 ppm (Chilo suppressalis) | percent effect (mortality or growth inhibition) at 200 ppm (Plutella xylostella) | percent control (mortality, anti-feedant effect or growth inhibition) at 200 ppm (Spodoptera littoralis)

CNC(=O)c1cnc(-n2ncnc2[C@H](C)NC(=O)Nc2cc(C(F)(F)F)c(Cl)cc2Cl)s1 [Example P395, 2-[5-[(1S)-1-[[2,4-dichloro-5-(trifluoromethyl)phenyl]carbamoyl-amino]ethyl]-1,2,4-triazol-1-yl]-N-methyl-thiazole-5-carboxamide]
≥ 80%: percent control (mortality, anti-feedant effect or growth inhibition) at 200 ppm (Chilo suppressalis) | percent effect (mortality or growth inhibition) at 200 ppm (Plutella xylostella) | percent control (mortality, anti-feedant effect or growth inhibition) at 200 ppm (Spodoptera littoralis)
